Assay results as given in ChEMBL document CHEMBL1127342, “Structure-based design of HIV protease inhibitors: 4-hydroxycoumarins and 4-hydroxy-2-pyrones as non-peptidic inhibitors” (J Med Chem, 1994).

Assays:
[1] = target: T1, Human immunodeficiency virus type 1 protease (Human immunodeficiency virus 1, UniProt Q72874); test: (§1) Tested for the HIV Protease inhibitory activity of the compound; format: functional
[2] = target: T1, Human immunodeficiency virus type 1 protease; test: as §1
[3] = Tested for pharmacokinetic parameter to calculate the steady-state volume of distributio at a dosage of 12 mg/kg in rat; format: ADME, organism-based; set-up: dose 12 mg/kg; conditions: in vivo, read-out: Vss
[4] = Tested for pharmacokinetic parameter to calculate the total body clearance at a dosage of 12 mg/kg in rat; format: ADME, organism-based; set-up: dose 12 mg/kg; conditions: in vivo, read-out: ClT
[5] = target: T1, Human immunodeficiency virus type 1 protease; test: Tested for the binding affinity against HIV-1 Protease
[6] = Oral bioavailability in dog; format: ADME, organism-based, Canis lupus familiaris; conditions: in vivo
[7] = Tested for pharmacokinetic parameter to calculate the steady-state volume of distributio at a dosage of 2.5 mg/kg in dog; format: ADME, organism-based, Canis lupus familiaris; set-up: dose 2.5 mg/kg; conditions: in vivo, read-out: Vss
[8] = Tested for pharmacokinetic parameter to calculate the half life period at a dosage of 12 mg/kg in rat; format: ADME, organism-based; set-up: dose 12 mg/kg; conditions: in vivo
[9] = Tested for antiviral activity against clinical isolates such as AZT resistant strain; format: functional; conditions: read-out: ED50 (the source's name)
[10] = Oral bioavailability in rat; format: ADME, organism-based; conditions: in vivo
[11] = Tested for pharmacokinetic parameter to calculate the total body clearance at a dosage of 2.5 mg/kg in dog; format: ADME, organism-based, Canis lupus familiaris; set-up: dose 2.5 mg/kg; conditions: in vivo, read-out: ClT
[12] = target: Human immunodeficiency virus type 1 protease (Human immunodeficiency virus 1) (UniProt Q72874); test: Tested for the activity against HIV protease
MT4 = test: Tested for the antiviral activity against HIV-1 IIIB-infected MT-4; format: functional; conditions: Homo sapiens, read-out: ED50 (the source's name)
[13] = target: Gastricsin (Homo sapiens) (UniProt P20142); test: Tested for the inhibitory activity against human aspartyl protease gastricsin at 10 uM concentration
Renin (Homo sapiens) = target: T2, Renin (Homo sapiens) (UniProt P00797); test: Tested for the inhibitory activity against human aspartyl protease, renin at 10 uM concentration
T2 sequence (whole entry): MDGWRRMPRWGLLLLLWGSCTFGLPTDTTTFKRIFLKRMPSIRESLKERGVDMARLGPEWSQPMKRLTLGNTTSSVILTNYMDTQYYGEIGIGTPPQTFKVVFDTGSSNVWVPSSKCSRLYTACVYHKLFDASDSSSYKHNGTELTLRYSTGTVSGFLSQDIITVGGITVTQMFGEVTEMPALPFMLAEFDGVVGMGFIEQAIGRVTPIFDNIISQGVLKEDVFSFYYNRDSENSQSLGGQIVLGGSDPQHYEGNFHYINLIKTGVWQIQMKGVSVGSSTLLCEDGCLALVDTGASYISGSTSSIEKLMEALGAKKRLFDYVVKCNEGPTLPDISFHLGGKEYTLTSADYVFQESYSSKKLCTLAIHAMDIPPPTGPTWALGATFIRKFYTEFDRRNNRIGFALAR

[14] = target: T3, Cathepsin E (Homo sapiens) (UniProt P14091); test: Tested for the inhibitory activity against human aspartyl protease, cathepsin E at 10 uM concentration
T3 sequence (whole entry): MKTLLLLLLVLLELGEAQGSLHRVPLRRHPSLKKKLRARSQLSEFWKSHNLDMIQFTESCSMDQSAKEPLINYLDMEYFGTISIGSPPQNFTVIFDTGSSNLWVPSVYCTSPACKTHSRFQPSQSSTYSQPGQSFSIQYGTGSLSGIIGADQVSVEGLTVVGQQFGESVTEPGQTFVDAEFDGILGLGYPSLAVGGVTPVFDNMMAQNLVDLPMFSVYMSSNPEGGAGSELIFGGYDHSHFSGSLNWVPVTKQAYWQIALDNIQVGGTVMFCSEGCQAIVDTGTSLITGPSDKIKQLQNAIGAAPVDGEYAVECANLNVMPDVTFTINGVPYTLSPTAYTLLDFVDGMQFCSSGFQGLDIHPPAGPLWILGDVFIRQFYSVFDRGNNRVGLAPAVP

Pepsin A (Homo sapiens) = Pepsin A (Homo sapiens) (UniProt P0DJD9); test: Inhibitory activity against human aspartyl protease, pepsin at 10 uM
[15] = target: Cathepsin D (Homo sapiens) (UniProt P07339); test: Tested for the inhibitory activity against human aspartyl protease, cathepsin D at 10 uM concentration
H9 = test: Tested for the antiviral activity against HIV-1 IIIB-infected H9 cells; format: functional; conditions: Homo sapiens, read-out: ED50 (the source's name)
[16] = Tested for pharmacokinetic parameter to calculate the half life period at a dosage of 2.5 mg/kg in dog; format: ADME, organism-based, Canis lupus familiaris; set-up: dose 2.5 mg/kg; conditions: in vivo
[17] = Tested for antiviral activity in HIV-1 infected PBMC; 100-300; format: functional; conditions: Human immunodeficiency virus 1; read-out: ED50 (the source's name)

Pepsin A (Homo sapiens), sequence (P0DJD9 63-388 limits assumed): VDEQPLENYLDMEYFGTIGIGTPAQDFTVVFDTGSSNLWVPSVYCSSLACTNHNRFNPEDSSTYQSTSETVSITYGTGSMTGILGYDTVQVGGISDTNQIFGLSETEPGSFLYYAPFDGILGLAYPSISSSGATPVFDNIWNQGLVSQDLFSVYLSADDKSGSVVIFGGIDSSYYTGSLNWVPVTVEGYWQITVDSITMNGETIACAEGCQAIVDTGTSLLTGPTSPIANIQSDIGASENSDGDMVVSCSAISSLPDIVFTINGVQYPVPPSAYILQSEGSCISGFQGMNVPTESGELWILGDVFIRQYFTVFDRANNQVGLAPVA
Cathepsin D (Homo sapiens), sequence (P07339 65-162 limits assumed): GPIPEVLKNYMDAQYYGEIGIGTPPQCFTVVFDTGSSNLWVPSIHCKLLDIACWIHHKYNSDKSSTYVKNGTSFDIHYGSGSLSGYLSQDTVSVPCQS
Cathepsin D (Homo sapiens), sequence (P07339 169-412 limits assumed): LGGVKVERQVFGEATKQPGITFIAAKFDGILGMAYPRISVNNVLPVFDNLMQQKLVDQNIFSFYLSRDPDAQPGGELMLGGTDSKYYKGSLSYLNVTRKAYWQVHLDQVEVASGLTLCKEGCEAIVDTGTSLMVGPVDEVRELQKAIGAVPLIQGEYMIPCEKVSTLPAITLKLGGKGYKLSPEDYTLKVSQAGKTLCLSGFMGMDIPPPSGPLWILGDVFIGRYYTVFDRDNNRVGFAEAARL
Gastricsin (Homo sapiens), sequence (P20142 whole entry, looked up): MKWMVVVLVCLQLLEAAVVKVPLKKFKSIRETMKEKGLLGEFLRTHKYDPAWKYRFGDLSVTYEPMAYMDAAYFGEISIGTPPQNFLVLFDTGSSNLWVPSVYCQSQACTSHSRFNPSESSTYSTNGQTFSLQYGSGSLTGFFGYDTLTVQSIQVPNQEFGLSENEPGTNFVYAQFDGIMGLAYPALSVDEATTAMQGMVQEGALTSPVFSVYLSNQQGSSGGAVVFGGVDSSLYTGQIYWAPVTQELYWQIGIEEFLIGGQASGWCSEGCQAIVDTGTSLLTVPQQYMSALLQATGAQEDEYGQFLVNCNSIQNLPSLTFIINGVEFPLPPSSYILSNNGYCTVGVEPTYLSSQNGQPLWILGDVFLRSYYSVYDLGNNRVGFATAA

CC(=O)CC(c1ccccc1)c1c(O)c2ccccc2oc1=O (configuration not stated) [WARFARIN]
IC50 [1]: ~30000 nM

CCC(c1ccccc1)c1c(O)cc(CCc2ccccc2)oc1=O (configuration not stated)
Ki [2]: 500 nM

CCC(Cc1ccccc1)c1cc(O)c(C(CC)c2ccccc2)c(=O)o1 (configuration not stated)
Vd [3]: 0.1 L/kg | clearance [4]: 0.8 mL/min/kg | Ki [5]: 38 nM | bioavailability [6]: 45% | Vd [7]: 0.26 L/kg | half-life [8]: 4 h | EC50 [9]: 4000 nM | bioavailability [10]: 76% | clearance [11]: 0.7 mL/min/kg | TCID50 [12]: 20 µM | EC50 (MT4): 3000 nM | inhibition [13]: 0% | inhibition (Renin (Homo sapiens)): 0% | inhibition [14]: 72% | inhibition (Pepsin A (Homo sapiens)): 53% | inhibition [15]: 52% | EC50 (H9): 3000 nM | half-life [16]: 6 h

CCC(c1ccccc1)c1c(O)c2ccccc2oc1=O (configuration not stated) [PHENPROCOUMON]
Ki [2]: 1000 nM | EC50 [17]: 300000 nM
